Values quoted from earlier work as cited in patent publication US7585869B2, “Substituted heterocylces for the treatment of abnormal cell growth” (Pfizer, Inc., priority 2003, dated 2009).

Assays:
[1] = tested on: transplanted human mammary carcinoma which expresses epidermal growth factor receptor tyrosine kinase (EGFR); details: athymic nude mice
[2] = tested on: carcinoma which does not express the EGF receptor

## O=CN/C=C/c1cc(O)ccc1O [erbstatin]
[1]
  effect on growth of transplanted human mammary carcinoma: selectively attenuates the growth
[2]
  effect on growth of another carcinoma: without effect on the growth
